Data published in paper PMC9688344, “[^225Ac]Ac-SibuDAB for Targeted Alpha Therapy of Prostate Cancer: Preclinical Evaluation and Comparison with [^225Ac]Ac-PSMA-617” (Cancers, 2022).

Key:
[1] = tested on: PSMA-positive PC-3 PIP cells; experiment: Cell uptake and internalization; type: cell-based; details: 4 h incubation; % of total added activity
PSMA = target: T1, PSMA (Homo sapiens, UniProt Q04609); experiment: PSMA-binding affinity (KD values) on PC-3 PIP cells; details: on ice
T1 construct: expressed in transfected cells; host or cells: PC-3 PIP prostate cancer cells (transduced to express PSMA), provided by Prof; Dr. Martin Pomper, Johns Hopkins University
T1 sequence (Q04609 whole entry): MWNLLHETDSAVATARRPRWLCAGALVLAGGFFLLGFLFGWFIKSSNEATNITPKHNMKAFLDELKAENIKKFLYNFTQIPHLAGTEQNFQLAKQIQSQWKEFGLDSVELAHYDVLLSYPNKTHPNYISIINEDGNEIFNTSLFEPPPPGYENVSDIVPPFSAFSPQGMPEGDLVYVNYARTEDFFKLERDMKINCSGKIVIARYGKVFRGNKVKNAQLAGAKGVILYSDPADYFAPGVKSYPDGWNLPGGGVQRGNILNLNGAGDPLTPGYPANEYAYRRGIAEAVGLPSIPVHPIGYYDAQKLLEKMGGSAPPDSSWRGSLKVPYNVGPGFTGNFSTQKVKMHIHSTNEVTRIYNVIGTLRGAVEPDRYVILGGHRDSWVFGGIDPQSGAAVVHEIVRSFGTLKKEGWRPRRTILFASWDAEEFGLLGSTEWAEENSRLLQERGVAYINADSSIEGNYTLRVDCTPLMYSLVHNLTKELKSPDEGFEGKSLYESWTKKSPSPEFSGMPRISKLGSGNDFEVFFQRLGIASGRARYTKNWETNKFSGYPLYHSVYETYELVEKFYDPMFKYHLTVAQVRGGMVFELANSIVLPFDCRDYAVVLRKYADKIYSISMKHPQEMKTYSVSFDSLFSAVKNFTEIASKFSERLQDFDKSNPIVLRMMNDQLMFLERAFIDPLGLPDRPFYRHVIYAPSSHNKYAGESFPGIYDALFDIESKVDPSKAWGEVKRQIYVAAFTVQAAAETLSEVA

[2] = Radioligand integrity by thin-layer chromatography; type: physicochemical; details: over a period of 48 h
Procedure: The PSMA ligands used in this study were synthesized using solid-phase chemistry methods as previously reported. The labeling of the PSMA ligands with actinium-225 was performed at ITM Medical Isotopes GmbH, Munich, Germany (Supplementary Material: Section S1). The radioligands (~50 kBq/nmol; ~0.5 MBq/mL) were shipped to the Paul Scherrer Institute (PSI) overnight followed by assessing their integrity using thin-layer chromatography. […] Depending on the experiment, the molar activity of the radioligands was adjusted by adding unlabeled ligand and the final formulation was prepared by adding vehicle (saline with 0.05% bovine serum albumin (BSA)) to obtain the desired activity concentration. Radiolabeling of SibuDAB with lutetium-177 (5–10 MBq/nmol) was performed as previously reported.

[3] = tested on: PC3-PIP/flu tumor-bearing mice; experiment: Biodistribution studies; type: in vivo, BALB/c nude mice
[4] = PBS/n-octanol distribution coefficient (logD); type: physicochemical; details: PBS pH 7.4/n-octanol

O=C([O-])CN1CCN(CC(=O)[O-])CCN(CC(=O)NCC2CCC(C(=O)NC(Cc3ccc4ccccc4c3)C(=O)NCCCCC(NC(=O)NC(CCC(=O)O)C(=O)O)C(=O)O)CC2)CCN(CC(=O)[O-])CC1.[225Ac+3] (stereo not shown) [[^225Ac]Ac-PSMA-617]
Cell uptake [1]: 63 ± 5%
Internalization (internalized fraction) [1]: 19 ± 3%
Kd (PSMA): 11 nM
intact radioligand [2]: > 99%
Blood, accumulated activity ([3]; 1 h p.i.): 0.62 ± 0.12 % IA/g
Bone, accumulated activity ([3]; 1 h p.i.): 0.46 ± 0.13 % IA/g
Heart, accumulated activity ([3]; 1 h p.i.): 0.35 ± 0.09 % IA/g
Intestines, accumulated activity ([3]; 1 h p.i.): 0.29 ± 0.12 % IA/g
Kidneys, accumulated activity ([3]; 1 h p.i.): 12 ± 3 % IA/g
Liver, accumulated activity ([3]; 1 h p.i.): 0.46 ± 0.10 % IA/g
Lung, accumulated activity ([3]; 1 h p.i.): 0.76 ± 0.23 % IA/g
Muscle, accumulated activity ([3]; 1 h p.i.): 0.18 ± 0.06 % IA/g
PC-3 PIP tumor, accumulated activity ([3]; 1 h p.i.): 46 ± 13 % IA/g
PC-3 flu tumor, accumulated activity ([3]; 1 h p.i.): 0.30 ± 0.06 % IA/g
Salivary glands, accumulated activity ([3]; 1 h p.i.): 0.30 ± 0.06 % IA/g
Spleen, accumulated activity ([3]; 1 h p.i.): 0.68 ± 0.09 % IA/g
Stomach, accumulated activity ([3]; 1 h p.i.): 0.37 ± 0.14 % IA/g
Tumor-to-blood ratio ([3]; 1 h p.i.): 73 ± 7
Tumor-to-kidney ratio ([3]; 1 h p.i.): 3.7 ± 0.3
Tumor-to-liver ratio ([3]; 1 h p.i.): 99 ± 8
Blood, accumulated activity ([3]; 4 h p.i.): ≤ 0.10 % IA/g
Bone, accumulated activity ([3]; 4 h p.i.): 0.14 ± 0.04 % IA/g
Heart, accumulated activity ([3]; 4 h p.i.): ≤ 0.10 % IA/g
Intestines, accumulated activity ([3]; 4 h p.i.): ≤ 0.10 % IA/g
Kidneys, accumulated activity ([3]; 4 h p.i.): 3.5 ± 0.6 % IA/g
Liver, accumulated activity ([3]; 4 h p.i.): 0.31 ± 0.04 % IA/g
Lung, accumulated activity ([3]; 4 h p.i.): ≤ 0.10 % IA/g
Muscle, accumulated activity ([3]; 4 h p.i.): ≤ 0.10 % IA/g
PC-3 PIP tumor, accumulated activity ([3]; 4 h p.i.): 43 ± 10 % IA/g
PC-3 flu tumor, accumulated activity ([3]; 4 h p.i.): 0.11 ± 0.02 % IA/g
Salivary glands, accumulated activity ([3]; 4 h p.i.): ≤ 0.10 % IA/g
Spleen, accumulated activity ([3]; 4 h p.i.): 0.12 ± 0.05 % IA/g
Stomach, accumulated activity ([3]; 4 h p.i.): ≤ 0.10 % IA/g
Tumor-to-blood ratio ([3]; 4 h p.i.): 2593 ± 825
Tumor-to-kidney ratio ([3]; 4 h p.i.): 13 ± 4
Tumor-to-liver ratio ([3]; 4 h p.i.): 142 ± 23
Blood, accumulated activity ([3]; 24 h p.i.): ≤ 0.10 % IA/g
Bone, accumulated activity ([3]; 24 h p.i.): 0.11 ± 0.01 % IA/g
Heart, accumulated activity ([3]; 24 h p.i.): ≤ 0.10 % IA/g
Intestines, accumulated activity ([3]; 24 h p.i.): ≤ 0.10 % IA/g
Kidneys, accumulated activity ([3]; 24 h p.i.): 1.2 ± 0.2 % IA/g
Liver, accumulated activity ([3]; 24 h p.i.): 0.39 ± 0.06 % IA/g
Lung, accumulated activity ([3]; 24 h p.i.): ≤ 0.10 % IA/g
Muscle, accumulated activity ([3]; 24 h p.i.): ≤ 0.10 % IA/g
PC-3 PIP tumor, accumulated activity ([3]; 24 h p.i.): 37 ± 9 % IA/g
PC-3 flu tumor, accumulated activity ([3]; 24 h p.i.): 0.11 ± 0.08 % IA/g
Salivary glands, accumulated activity ([3]; 24 h p.i.): ≤ 0.10 % IA/g
Spleen, accumulated activity ([3]; 24 h p.i.): 0.13 ± 0.04 % IA/g
Stomach, accumulated activity ([3]; 24 h p.i.): ≤ 0.10 % IA/g
Tumor-to-blood ratio ([3]; 24 h p.i.): 4991 ± 3208
Tumor-to-kidney ratio ([3]; 24 h p.i.): 33 ± 9
Tumor-to-liver ratio ([3]; 24 h p.i.): 97 ± 20
Blood, accumulated activity ([3]; 48 h p.i.): ≤ 0.10 % IA/g
Bone, accumulated activity ([3]; 48 h p.i.): 0.12 ± 0.04 % IA/g
Heart, accumulated activity ([3]; 48 h p.i.): ≤ 0.10 % IA/g
Intestines, accumulated activity ([3]; 48 h p.i.): ≤ 0.10 % IA/g
Kidneys, accumulated activity ([3]; 48 h p.i.): 0.79 ± 0.13 % IA/g
Liver, accumulated activity ([3]; 48 h p.i.): 0.44 ± 0.16 % IA/g
Lung, accumulated activity ([3]; 48 h p.i.): ≤ 0.10 % IA/g
Muscle, accumulated activity ([3]; 48 h p.i.): ≤ 0.10 % IA/g
PC-3 PIP tumor, accumulated activity ([3]; 48 h p.i.): 31 ± 3 % IA/g
PC-3 flu tumor, accumulated activity ([3]; 48 h p.i.): 0.26 ± 0.4 % IA/g
Salivary glands, accumulated activity ([3]; 48 h p.i.): ≤ 0.10 % IA/g
Spleen, accumulated activity ([3]; 48 h p.i.): 0.13 ± 0.02 % IA/g
Stomach, accumulated activity ([3]; 48 h p.i.): ≤ 0.10 % IA/g
Tumor-to-blood ratio ([3]; 48 h p.i.): 1716 ± 860
Tumor-to-kidney ratio ([3]; 48 h p.i.): 37 ± 6
Tumor-to-liver ratio ([3]; 48 h p.i.): 68 ± 15
logD value [4]: ≤ −3.9

CC(C)Cc1ccc(C(C)C(=O)NC(CCN)C(=O)NCCCCC(NC(=O)CN2CCN(CC(=O)[O-])CCN(CC(=O)[O-])CCN(CC(=O)[O-])CC2)C(=O)NCC2CCC(C(=O)NC(Cc3ccc4ccccc4c3)C(=O)NCCCCC(NC(=O)NC(CCC(=O)O)C(=O)O)C(=O)O)CC2)cc1.[225Ac+3] (stereo not shown) [[^225Ac]Ac-SibuDAB]
Cell uptake [1]: 59 ± 1%
Internalization (internalized fraction) [1]: 25 ± 5%
Kd (PSMA): 17 nM
intact radioligand [2]: > 99%
Blood, accumulated activity ([3]; 1 h p.i.): 23 ± 2 % IA/g
Bone, accumulated activity ([3]; 1 h p.i.): 2.5 ± 0.2 % IA/g
Heart, accumulated activity ([3]; 1 h p.i.): 7.4 ± 0.9 % IA/g
Intestines, accumulated activity ([3]; 1 h p.i.): 2.6 ± 0.5 % IA/g
Kidneys, accumulated activity ([3]; 1 h p.i.): 18 ± 1 % IA/g
Liver, accumulated activity ([3]; 1 h p.i.): 4.4 ± 0.4 % IA/g
Lung, accumulated activity ([3]; 1 h p.i.): 19 ± 2 % IA/g
Muscle, accumulated activity ([3]; 1 h p.i.): 2.0 ± 0.4 % IA/g
PC-3 PIP tumor, accumulated activity ([3]; 1 h p.i.): 20 ± 2 % IA/g
PC-3 flu tumor, accumulated activity ([3]; 1 h p.i.): 4.2 ± 1.1 % IA/g
Salivary glands, accumulated activity ([3]; 1 h p.i.): 4.7 ± 0.4 % IA/g
Spleen, accumulated activity ([3]; 1 h p.i.): 3.5 ± 0.3 % IA/g
Stomach, accumulated activity ([3]; 1 h p.i.): 2.4 ± 0.4 % IA/g
Tumor-to-blood ratio ([3]; 1 h p.i.): 0.9 ± 0.1
Tumor-to-kidney ratio ([3]; 1 h p.i.): 1.2 ± 0.1
Tumor-to-liver ratio ([3]; 1 h p.i.): 4.6 ± 0.5
Blood, accumulated activity ([3]; 4 h p.i.): 16 ± 2 % IA/g
Bone, accumulated activity ([3]; 4 h p.i.): 2.2 ± 0.5 % IA/g
Heart, accumulated activity ([3]; 4 h p.i.): 5.5 ± 0.7 % IA/g
Intestines, accumulated activity ([3]; 4 h p.i.): 2.2 ± 0.3 % IA/g
Kidneys, accumulated activity ([3]; 4 h p.i.): 19 ± 1 % IA/g
Liver, accumulated activity ([3]; 4 h p.i.): 4.0 ± 0.3 % IA/g
Lung, accumulated activity ([3]; 4 h p.i.): 10 ± 2 % IA/g
Muscle, accumulated activity ([3]; 4 h p.i.): 1.9 ± 0.2 % IA/g
PC-3 PIP tumor, accumulated activity ([3]; 4 h p.i.): 45 ± 5 % IA/g
PC-3 flu tumor, accumulated activity ([3]; 4 h p.i.): 4.1 ± 0.8 % IA/g
Salivary glands, accumulated activity ([3]; 4 h p.i.): 3.7 ± 0.2 % IA/g
Spleen, accumulated activity ([3]; 4 h p.i.): 3.0 ± 0.5 % IA/g
Stomach, accumulated activity ([3]; 4 h p.i.): 1.8 ± 0.3 % IA/g
Tumor-to-blood ratio ([3]; 4 h p.i.): 2.9 ± 0.3
Tumor-to-kidney ratio ([3]; 4 h p.i.): 2.3 ± 0.1
Tumor-to-liver ratio ([3]; 4 h p.i.): 11 ± 1
Blood, accumulated activity ([3]; 24 h p.i.): 3.3 ± 0.7 % IA/g
Bone, accumulated activity ([3]; 24 h p.i.): 0.81 ± 0.10 % IA/g
Heart, accumulated activity ([3]; 24 h p.i.): 1.5 ± 0.4 % IA/g
Intestines, accumulated activity ([3]; 24 h p.i.): 0.85 ± 0.14 % IA/g
Kidneys, accumulated activity ([3]; 24 h p.i.): 18 ± 2 % IA/g
Liver, accumulated activity ([3]; 24 h p.i.): 3.3 ± 0.4 % IA/g
Lung, accumulated activity ([3]; 24 h p.i.): 2.9 ± 0.4 % IA/g
Muscle, accumulated activity ([3]; 24 h p.i.): 0.58 ± 0.06 % IA/g
PC-3 PIP tumor, accumulated activity ([3]; 24 h p.i.): 80 ± 8 % IA/g
PC-3 flu tumor, accumulated activity ([3]; 24 h p.i.): 2.4 ± 0.9 % IA/g
Salivary glands, accumulated activity ([3]; 24 h p.i.): 1.7 ± 0.2 % IA/g
Spleen, accumulated activity ([3]; 24 h p.i.): 2.3 ± 0.5 % IA/g
Stomach, accumulated activity ([3]; 24 h p.i.): 0.72 ± 0.14 % IA/g
Tumor-to-blood ratio ([3]; 24 h p.i.): 25 ± 6
Tumor-to-kidney ratio ([3]; 24 h p.i.): 4.7 ± 0.9
Tumor-to-liver ratio ([3]; 24 h p.i.): 25 ± 5
Blood, accumulated activity ([3]; 48 h p.i.): 1.1 ± 0.2 % IA/g
Bone, accumulated activity ([3]; 48 h p.i.): 0.48 ± 0.09 % IA/g
Heart, accumulated activity ([3]; 48 h p.i.): 0.73 ± 0.17 % IA/g
Intestines, accumulated activity ([3]; 48 h p.i.): 0.40 ± 0.08 % IA/g
Kidneys, accumulated activity ([3]; 48 h p.i.): 8.6 ± 1.1 % IA/g
Liver, accumulated activity ([3]; 48 h p.i.): 2.7 ± 0.5 % IA/g
Lung, accumulated activity ([3]; 48 h p.i.): 1.3 ± 0.3 % IA/g
Muscle, accumulated activity ([3]; 48 h p.i.): 0.30 ± 0.11 % IA/g
PC-3 PIP tumor, accumulated activity ([3]; 48 h p.i.): 64 ± 11 % IA/g
PC-3 flu tumor, accumulated activity ([3]; 48 h p.i.): 1.5 ± 0.4 % IA/g
Salivary glands, accumulated activity ([3]; 48 h p.i.): 0.92 ± 0.19 % IA/g
Spleen, accumulated activity ([3]; 48 h p.i.): 1.9 ± 0.5 % IA/g
Stomach, accumulated activity ([3]; 48 h p.i.): 0.38 ± 0.04 % IA/g
Tumor-to-blood ratio ([3]; 48 h p.i.): 62 ± 11
Tumor-to-kidney ratio ([3]; 48 h p.i.): 7.4 ± 1.3
Tumor-to-liver ratio ([3]; 48 h p.i.): 24 ± 4
tumor uptake, higher than for [225Ac]Ac-PSMA-617 ([3]; 48 h p.i., PC-3 PIP tumor): 2 fold
logD value [4]: −2.5 ± 0.1
